# Values joined by “and” are separate entries in the source; they are usually repeats but may differ in a detail not shown here. Equal values may be shown once.
# Legend:
# [1] = target: 5-hydroxytryptamine receptor 6 (Rattus norvegicus, UniProt P31388)
# D(4) dopamine receptor = target: T1, D(4) dopamine receptor (Rattus norvegicus, UniProt P30729)
# T1 sequence (P30729 whole entry): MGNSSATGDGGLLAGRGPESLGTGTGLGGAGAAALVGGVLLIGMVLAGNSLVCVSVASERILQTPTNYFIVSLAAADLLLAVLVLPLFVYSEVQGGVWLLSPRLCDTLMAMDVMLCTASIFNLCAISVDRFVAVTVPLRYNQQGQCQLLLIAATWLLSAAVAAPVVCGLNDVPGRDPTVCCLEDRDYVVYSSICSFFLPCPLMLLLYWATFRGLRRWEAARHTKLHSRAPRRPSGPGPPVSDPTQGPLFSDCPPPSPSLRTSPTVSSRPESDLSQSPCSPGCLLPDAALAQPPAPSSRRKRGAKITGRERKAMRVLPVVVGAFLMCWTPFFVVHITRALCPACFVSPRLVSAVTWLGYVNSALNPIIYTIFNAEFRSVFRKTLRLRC
# D(3) dopamine receptor = D(3) dopamine receptor (Rattus norvegicus, UniProt P19020)
# D(1A) dopamine receptor = D(1A) dopamine receptor (Rattus norvegicus, UniProt P18901)
# D(1B) dopamine receptor = D(1B) dopamine receptor (Rattus norvegicus, UniProt P25115)
# [2] = target: 5-hydroxytryptamine receptor 7 (Rattus norvegicus, UniProt P32305)
# Sequence of 5-hydroxytryptamine receptor 7 (P32305 whole entry): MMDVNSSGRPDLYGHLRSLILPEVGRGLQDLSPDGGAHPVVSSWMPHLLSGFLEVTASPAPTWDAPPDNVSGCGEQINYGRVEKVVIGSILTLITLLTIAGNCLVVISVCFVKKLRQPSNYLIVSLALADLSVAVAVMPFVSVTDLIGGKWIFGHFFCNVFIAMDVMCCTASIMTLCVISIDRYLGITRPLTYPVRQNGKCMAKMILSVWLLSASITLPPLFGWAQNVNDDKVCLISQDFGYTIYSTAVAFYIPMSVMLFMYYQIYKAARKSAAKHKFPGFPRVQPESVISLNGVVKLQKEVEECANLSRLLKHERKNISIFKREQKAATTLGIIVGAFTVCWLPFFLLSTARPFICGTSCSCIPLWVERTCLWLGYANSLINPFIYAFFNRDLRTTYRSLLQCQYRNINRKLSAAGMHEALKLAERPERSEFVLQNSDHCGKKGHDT
# Sequence of D(3) dopamine receptor (P19020 whole entry): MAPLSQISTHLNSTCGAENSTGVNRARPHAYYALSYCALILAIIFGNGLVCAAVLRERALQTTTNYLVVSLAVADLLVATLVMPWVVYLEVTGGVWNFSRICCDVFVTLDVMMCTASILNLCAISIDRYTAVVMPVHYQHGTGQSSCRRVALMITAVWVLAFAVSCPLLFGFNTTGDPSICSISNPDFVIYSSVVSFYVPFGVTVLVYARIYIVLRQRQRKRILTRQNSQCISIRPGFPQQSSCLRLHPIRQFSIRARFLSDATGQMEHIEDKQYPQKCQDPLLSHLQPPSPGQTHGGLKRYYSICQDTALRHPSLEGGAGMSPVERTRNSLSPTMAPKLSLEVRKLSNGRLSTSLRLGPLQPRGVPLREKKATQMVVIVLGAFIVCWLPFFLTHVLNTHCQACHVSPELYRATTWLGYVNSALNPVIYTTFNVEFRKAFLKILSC
# Sequence of 5-hydroxytryptamine receptor 6 (P31388 whole entry): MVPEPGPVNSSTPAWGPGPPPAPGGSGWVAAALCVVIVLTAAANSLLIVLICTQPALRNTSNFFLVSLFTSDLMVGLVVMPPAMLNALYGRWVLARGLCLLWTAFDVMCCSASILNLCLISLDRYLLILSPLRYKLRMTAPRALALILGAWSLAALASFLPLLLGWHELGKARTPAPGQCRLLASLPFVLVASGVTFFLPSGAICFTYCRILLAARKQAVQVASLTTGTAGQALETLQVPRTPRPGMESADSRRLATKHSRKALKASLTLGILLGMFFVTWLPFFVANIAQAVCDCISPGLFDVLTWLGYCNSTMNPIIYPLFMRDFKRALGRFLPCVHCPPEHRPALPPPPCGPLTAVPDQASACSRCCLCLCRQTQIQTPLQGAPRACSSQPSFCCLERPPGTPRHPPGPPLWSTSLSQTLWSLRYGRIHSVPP
# Sequence of D(1A) dopamine receptor (P18901 whole entry): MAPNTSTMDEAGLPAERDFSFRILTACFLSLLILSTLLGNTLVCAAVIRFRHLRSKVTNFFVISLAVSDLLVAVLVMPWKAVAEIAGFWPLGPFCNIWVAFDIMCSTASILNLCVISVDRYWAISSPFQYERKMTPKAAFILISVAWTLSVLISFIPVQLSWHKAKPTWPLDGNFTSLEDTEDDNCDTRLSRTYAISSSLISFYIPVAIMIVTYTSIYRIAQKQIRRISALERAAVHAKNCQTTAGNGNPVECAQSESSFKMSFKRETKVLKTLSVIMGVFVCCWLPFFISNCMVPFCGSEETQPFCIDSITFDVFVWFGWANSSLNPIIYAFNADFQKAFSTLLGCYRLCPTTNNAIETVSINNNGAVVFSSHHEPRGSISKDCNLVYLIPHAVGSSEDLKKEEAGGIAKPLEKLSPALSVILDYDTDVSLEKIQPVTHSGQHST
# Sequence of D(1B) dopamine receptor (P25115 whole entry): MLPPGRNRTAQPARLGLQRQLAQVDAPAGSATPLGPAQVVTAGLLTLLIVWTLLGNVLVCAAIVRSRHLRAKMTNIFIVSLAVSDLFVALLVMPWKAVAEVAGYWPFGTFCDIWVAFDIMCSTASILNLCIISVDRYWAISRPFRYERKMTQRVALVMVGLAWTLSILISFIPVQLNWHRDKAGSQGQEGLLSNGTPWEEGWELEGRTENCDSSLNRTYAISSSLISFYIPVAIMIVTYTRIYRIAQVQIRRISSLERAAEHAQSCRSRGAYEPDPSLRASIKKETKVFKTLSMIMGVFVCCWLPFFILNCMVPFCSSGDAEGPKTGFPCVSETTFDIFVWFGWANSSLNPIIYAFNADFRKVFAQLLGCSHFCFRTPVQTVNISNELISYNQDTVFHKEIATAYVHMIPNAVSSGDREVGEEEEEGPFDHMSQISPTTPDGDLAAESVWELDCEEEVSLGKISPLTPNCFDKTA
Ki (D(4) dopamine receptor),Ki (D(3) dopamine receptor),SMILES,Ki [1],Ki (D(1A) dopamine receptor),Ki (D(1B) dopamine receptor),Ki [2]
–,–,"O=C1CCc2ccc(OCCCCN3CCN(c4cccc(Cl)c4Cl)CC3)cc2N1 [7-{4-[4-(2,3-dichlorophenyl)piperazin-1-yl]butoxy}-3,4-dihydroquinolin-2(1H)-one]",0.161 µM,–,–,–
0.064 µM,0.00036 µM and 0.00014 µM,CCc1cc(Cl)c(OC)c(C(=O)NC[C@@H]2CCCN2CC)c1O [3-Chloro-5-ethyl-N-((S)-1-ethyl-pyrrolidin-2-ylmethyl)-6-hydroxy-2-methoxy-benzamide],–,–,–,–
0.28 µM,0.018 µM and 0.0817 µM,Cc1cccc(N2CCN(CCCOc3ccc4ccc(=O)[nH]c4c3)CC2)c1C [NSC_163839],0.68 µM,> 10 µM,> 10 µM,0.022 µM

SMILES,Ki (D(4) dopamine receptor),Ki (D(3) dopamine receptor),Ki [1],Ki (D(1A) dopamine receptor),Ki (D(1B) dopamine receptor),Ki [2]
"Cc1c(O)ccc(N2CCN(CCCCOc3ccc4c(c3)NC(=O)CC4)CC2)c1C [7-{4-[4-(4-hydroxy-2,3-dimethylphenyl)piperazin-1-yl]butoxy}-1,2,3,4-tetrahydroquinolin-2-one]",0.12 µM,0.0045 µM and 0.00163 µM,–,0.46 µM,> 10 µM,0.22 µM
